Results on 22 molecules are retold here after ChEMBL document CHEMBL4602605, “Fluoroquinolones structural and medicinal developments (2013-2018): Where are we now?” (Bioorg Med Chem, 2019).

Experiment [1] concerns Escherichia coli. Description: Antimicrobial activity against Escherichia coli ATCC 8739 by agar dilution method. In kind it is functional.
Experiment [2] concerns Staphylococcus aureus. Description: Antimicrobial activity against Staphylococcus aureus ATCC 6538 by agar dilution method. The format is functional.
Experiment [3] deals with Pseudomonas aeruginosa. Description: Antimicrobial activity against Pseudomonas aeruginosa ATCC 9027 by agar well diffusion method. In kind it is functional.
Experiment [4] has as its system Staphylococcus aureus. Description: Antimicrobial activity against Staphylococcus aureus ATCC 25923 incubated for 18 to 24 hrs by disk diffusion method. The format is functional.
Experiment [5] has as its system Bacillus subtilis. Description: Antimicrobial activity against Bacillus subtilis 10B incubated for 18 to 24 hrs by disk diffusion method. In kind it is functional.
Experiment [6] deals with Escherichia coli. Description: Antimicrobial activity against Escherichia coli ATCC 25922 incubated for 18 to 24 hrs by disk diffusion method. The format is functional.
Experiment [7] concerns Pseudomonas aeruginosa. Description: Antimicrobial activity against Pseudomonas aeruginosa ATCC 27853 incubated for 18 to 24 hrs by disk diffusion method. The format is functional.
In experiment [8] the test system is Staphylococcus epidermidis. Description: Antimicrobial activity against methicillin-resistant Staphylococcus epidermidis 12-1 incubated for 18 to 24 hrs. The format is functional.
Experiment [9] has as its system Pseudomonas aeruginosa. Description: Antimicrobial activity against Pseudomonas aeruginosa ATCC 12-12 incubated for 18 to 24 hrs. In kind it is functional.
Experiment [10] has as its system Staphylococcus aureus. Description: Antimicrobial activity against methicillin-resistant Staphylococcus aureus ATCC 12-1 incubated for 18 to 24 hrs. The format is functional.
In experiment [11] the test system is Staphylococcus aureus. Description: Antimicrobial activity against Staphylococcus aureus ATCC 25923 incubated for 18 to 24 hrs. The format is functional.
The test system of experiment [12] is Escherichia coli. Description: Antimicrobial activity against Escherichia coli ATCC 25922 incubated for 18 to 24 hrs. In kind it is functional.
Experiment [13] deals with Helicobacter pylori. Description: Antimicrobial activity against Helicobacter pylori clinical isolate 2 after 7 days by two-fold agar dilution method. The format is functional. Particulars: clinical isolate 2, 168 h.
Experiment [14] relates to Helicobacter pylori. Description: Antimicrobial activity against Helicobacter pylori clinical isolate 1 after 7 days by two-fold agar dilution method. The format is functional. Particulars: clinical isolate 1, 168 h.
Experiment [15] concerns Aspergillus clavatus. Description: Antifungal activity against Aspergillus clavatus after overnight incubation by agar well diffusion method. The format is functional.
The test system of experiment [16] is PC-3. Description: Growth inhibition of human PC3 cells by MTT assay. In kind it is functional, cell-based.
In experiment [17] the test system is Candida albicans. Description: Antifungal activity against Candida albicans after overnight incubation by agar well diffusion method. The format is functional.

In brackets after ≈: the same amount, converted by molar mass.

In the case of `CCn1cc(C(=O)O)c(=O)c2cc(F)c(N3CCNC(C)C3)c(Cl)c21` (stereo unspecified), the MIC amounted to 0.3 µg/mL (≈ 0.816 µM) in [1], 1.21 µg/mL (≈ 3.29 µM) in [2] and 4.83 µg/mL (≈ 13.1 µM) in experiment [3].

For the molecule `CCn1cc(C(=O)O)c(=O)c2cc(F)c(N3CCNCC3)c(Cl)c21`, the MIC in experiment [1] is 2 µg/mL (≈ 5.65 µM); in experiment [2] it was 4 µg/mL (≈ 11.3 µM); in experiment [3], 32 µg/mL (≈ 90.5 µM).

As for `CCn1cc(C(=O)O)c(=O)c2cc(F)c(N3CCOCC3)cc21`, the results for the MIC in experiment [1], in experiment [2] and in experiment [3] were 16 µg/mL (≈ 50 µM), 0.32 µg/mL (≈ 0.999 µM) and 128 µg/mL (≈ 400 µM), respectively.

As to `CCn1cc(C(=O)O)c(=O)c2cc(F)c(N3CCCC3)cc21`, the results for the MIC in experiment [1], in experiment [2] and in experiment [3] were 16 µg/mL (≈ 52.6 µM), 0.25 µg/mL (≈ 0.822 µM) and 16 µg/mL (≈ 52.6 µM), respectively.

Take `CCn1cc(C(=O)O)c(=O)c2cc(F)c(Cl)cc21`: the MIC in experiment [4] stood at 0.535 µg/mL (≈ 1.98 µM); in [5] it was 0.125 µg/mL (≈ 0.464 µM); in [6], 0.355 µg/mL (≈ 1.32 µM); in experiment [7] it was 116 µg/mL (≈ 432 µM).

On to `CCn1cc(C(=O)O)c(=O)c2cc(F)c(N3CCCCC3)cc21`, for which the values for the MIC in experiment [1], in experiment [2] and in experiment [3] were 32 µg/mL (≈ 101 µM), less than 0.125 µg/mL and 1.28 µg/mL (≈ 4.02 µM), respectively.

As to `CO/N=C1\CCN(c2c(F)cc3c(=O)c(C(=O)O)cn(C4CC4)c3c2OC)CC1NC(=O)CNC(=O)CN` (stereo unspecified), the MIC was 64 µg/mL (≈ 120 µM) in experiment [8]; more than 128 µg/mL in [9]; more than 128 µg/mL in experiment [10]; 4 µg/mL (≈ 7.51 µM) in experiment [11]; 16 µg/mL (≈ 30 µM) in [12].

`CCn1cc(C(=O)O)c(=O)c2cc(F)c(Nn3c(=O)cc[nH]c3=O)c(F)c21`: the MIC in experiment [4] is 310 µg/mL (≈ 819 µM); in experiment [5] it was more than 500 µg/mL; in experiment [6], 120 µg/mL (≈ 317 µM); in [7], more than 500 µg/mL.

Consider `Cc1ccc(-n2nnc3c4c(cc(F)c32)c(=O)c(C(=O)O)cn4C2CC2)cc1`, for which the MIC in experiment [13] worked out at 1.3 µg/mL (≈ 3.44 µM); in experiment [14] it was 5 µg/mL (≈ 13.2 µM).

`COc1c(N2CCN(C)CC2)c(F)cc2c(=O)c(C(=O)N/N=C\c3cc(Br)ccc3O)cn(C3CC3)c12`: the “inhibition zone (IZ)” value in experiment [15] came out at 12 mm. Besides, the midpoint of inhibition in experiment [16], the IC50, lay at 12 µg/mL (≈ 21 µM).

With `Nc1c(Nc2ccc(F)cc2)c(F)cc2c(=O)c(C(=O)O)cn(C3CC3)c12`, the results for the MIC in experiment [13] and in [14] were 5 µg/mL (≈ 13.5 µM) and 2.5 µg/mL (≈ 6.73 µM), respectively.

For `COc1ccc(-n2nnc3c4c(cc(F)c32)c(=O)c(C(=O)O)cn4C2CC2)cc1`, the values for the MIC in [13] and in experiment [14] were 1.3 µg/mL (≈ 3.3 µM) and 2.5 µg/mL (≈ 6.34 µM), respectively.

As for `CCn1cc(C(=O)O)c(=O)c2cc(F)c(Nc3ncccn3)cc21`, the minimum inhibitory concentration (MIC) was 515 µg/mL (≈ 1570 µM) in experiment [4], more than 500 µg/mL in experiment [5], 510 µg/mL (≈ 1550 µM) in experiment [6] and more than 500 µg/mL in experiment [7].

`CCn1cc(C(=O)O)c(=O)c2cc(F)c(NNc3n[nH]c(N)n3)c(F)c21`: the MIC in experiment [4] is 240 µg/mL (≈ 657 µM); in experiment [5], more than 500 µg/mL; in experiment [6], 390 µg/mL (≈ 1070 µM); in experiment [7], more than 500 µg/mL.

Regarding `COc1c(N2CCN(C)CC2)c(F)cc2c(=O)c(C(=O)N/N=C\c3ccccc3)cn(C3CC3)c12`, in [15], the “inhibition zone (IZ)” value was found to be 11 mm. Also, the IC50 in [16] was found to be 16.3 µg/mL (≈ 34.1 µM).

On to `CCn1cc(C(=O)O)c(=O)c2cc(F)c(N3CCCC(C)C3)cc21` (stereo unspecified), for which the figures for the MIC in experiment [1], in [2] and in experiment [3] were 1.28 µg/mL (≈ 3.85 µM), less than 0.125 µg/mL and 1.28 µg/mL (≈ 3.85 µM), respectively.

For the molecule `CCn1cc(C(=O)O)c(=O)c2cc(F)c(N3CCCCC3)c(Cl)c21`, the results for the MIC in experiment [1], in [2] and in [3] were 128 µg/mL (≈ 363 µM), 2 µg/mL (≈ 5.67 µM) and 128 µg/mL (≈ 363 µM), respectively.

Take `CO/N=C1\CCN(c2c(F)cc3c(=O)c(C(=O)O)cn(C4CC4)c3c2OC)CC1NC(=O)C(C)NC(=O)C(C)N` (stereo unspecified): the MIC in experiment [8] is 64 µg/mL (≈ 114 µM); in [9] it was 128 µg/mL (≈ 228 µM); in experiment [10] it was more than 128 µg/mL; in [11] it was 4 µg/mL (≈ 7.14 µM); in experiment [12] it was 32 µg/mL (≈ 57.1 µM).

In the case of `COc1c(N2CCN(C)CC2)c(F)cc2c(=O)c(C(=O)N/N=C\c3cccc([N+](=O)[O-])c3)cn(C3CC3)c12`, the “inhibition zone (IZ)” value stood at 10 mm in experiment [15] and 12 mm in experiment [17].

Turning to `CCn1cc(C(=O)O)c(=O)c2cc(F)c(F)cc21`, the MIC in experiment [4] worked out at 369 µg/mL (≈ 1460 µM); in experiment [5], 29.6 µg/mL (≈ 117 µM); in [6], 24.6 µg/mL (≈ 97.3 µM); in experiment [7], 138 µg/mL (≈ 547 µM).

As for `CCn1cc(C(=O)O)c(=O)c2cc(F)c(N3CCN(C)CC3)c(Cl)c21`, the MIC stood at 2 µg/mL (≈ 5.44 µM) in experiment [1], 4 µg/mL (≈ 10.9 µM) in experiment [2] and 1 µg/mL (≈ 2.72 µM) in experiment [3].

As to `CO/N=C1\CCN(c2c(F)cc3c(=O)c(C(=O)O)cn(C4CC4)c3c2OC)CC1NC(=O)[C@H](N)[C@H](C)O` (stereo partly specified), the MIC was 64 µg/mL (≈ 123 µM) in [8]; 64 µg/mL (≈ 123 µM) in experiment [9]; 128 µg/mL (≈ 246 µM) in experiment [10]; 2 µg/mL (≈ 3.85 µM) in experiment [11]; 16 µg/mL (≈ 30.8 µM) in [12].
